What was measured:
human LPA1 [1] = target: T1, human LPA1 (Homo sapiens, UniProt Q92633); assay: In vitro LPA1 functional antagonist assay (calcium mobilization, FLIPR); type: cell-based; conditions: CHO-K1 cells overexpressing human LPA1; Oleoyl LPA challenge; calcium mobilization on FLIPR Tetra
T1 construct: expressed in transfected cells; host or cells: CHO-K1
Description: In Vitro LPA1 Functional Antagonist Assay
CHO-K1 cells overexpressing human LPA1 were seeded in a total volume of 20 μL into black-walled, clear-bottom, Poly-D-lysine coated 384-well microplates and incubated at 37° C. for the appropriate time prior to testing. Assays were performed in 1× Dye Loading Buffer consisting of 1× Dye, 1× Additive A and 2.5 mM Probenecid in HBSS/20 mM Hepes. Probenicid was prepared fresh. Cells were loaded with dye prior to testing. Media was aspirated from cells and replaced with […] Dye Loading Buffer. Cells were incubated for 30-60 minutes at 37° C. After dye loading, cells were removed from the incubator and 10 μL 3× test compound was added. Cells were incubated for 30 minutes at room temperature in the dark to equilibrate plate temperature followed by Oleoyl LPA challenge at the 0.018 M. Compound antagonist activity was measured on a FLIPR Tetra (MDS). Calcium mobilization was monitored for 2 minutes and 10 μL Oleoyl LPA in HBSS/20 mM Hepes was added to the cells 5 seconds into the assay. Compound activity was analyzed using CBIS data analysis suite (ChemInnovation, CA). Percentage inhibition is calculated using the following formula:
% Inhibition=100%×(1−(mean RFU of test sample−mean RFU of vehicle control)/(mean RFU of LPA control−mean RFU of vehicle control)).

human LPA1 [2] = target: T1, human LPA1; assay: In vitro LPA1 calcium flux antagonist assay, Bioduro protocol; type: cell-based; conditions: CHO-K1 cells overexpressing human LPA1 and G15a; LPA challenge at EC80; calcium mobilization on FLIPR Tetra; read-out: IC50 (nM) in Assay B2
Description: In Vitro LPA1 Calcium Flux Antagonist Assay Bioduro Protocol
CHO-K1 cells overexpressing human LPA1 and G15a were seeded at a total volume of 20 uL (15000 cells/well) into Matrigel pre-coated 384-well plates (coming -3764) and incubated at 37° C. After overnight incubation, the cells were serum starved for 4 h. Assays were performed in dye loading buffer containing 1× Fluo-8 AM (AAT Bioquest, 21080) and 2.5 mM probenecid (Thermo Fisher, 36400) in HBSS/20 mM Hepes. After cell starvation, the medium was replaced with 20 uL of dye loading buffer and incubated at 37° C. for 30 min. Then 5 uL of 5× compound titrated in dye loading buffer was added to the cells and incubated for 30 min followed by LPA challenge at EC80. Calcium mobilization was measured on a FLIPR Tetra (MDS). For LPA EC80 determination, starved cells were incubated with 20 uL of dye loading buffer for 1 h, then 5 uL of 5×LPA titrated in dye loading buffer was added to the cells. Calcium signals induced by LPA was monitors on a FLIPR.
Percentage inhibition is calculated using the following formula:
% Inhibition=100%×(1−(mean RFU of test sample−mean RFU of DMSO)/(mean RFU of LPA control−mean RFU of DMSO)).

T1 sequence (Q92633 whole entry): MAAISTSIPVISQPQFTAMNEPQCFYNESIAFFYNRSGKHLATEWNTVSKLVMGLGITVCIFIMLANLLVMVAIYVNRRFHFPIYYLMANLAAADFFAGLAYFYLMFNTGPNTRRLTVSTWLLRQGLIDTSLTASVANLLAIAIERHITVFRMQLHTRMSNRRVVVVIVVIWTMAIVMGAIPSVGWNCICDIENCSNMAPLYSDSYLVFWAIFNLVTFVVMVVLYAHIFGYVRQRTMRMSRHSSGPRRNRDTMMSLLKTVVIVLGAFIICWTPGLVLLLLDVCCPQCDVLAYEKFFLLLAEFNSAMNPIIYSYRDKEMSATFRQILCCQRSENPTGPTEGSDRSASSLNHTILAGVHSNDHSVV

Row | SMILES | IC50 (human LPA1 [1]) [µM] | IC50 (human LPA1 [2]) [nM]
1 | COc1cc([C@@H](O)[C@H](Cc2nc(CC(=O)O)cs2)OC2CCCC2)cc(OC)c1C [Compound 112a, 2-(2-((2S,3R)-2-(cyclopentyloxy)-3-(3,5-dimethoxy-4-methylphenyl)-3-hydroxypropyl)thiazol-4-yl)acetic acid] | 0.0561 | –
2 | COc1cc([C@@H](O)[C@H](Cc2nc3cc(C(=O)O)ccc3[nH]2)OCC2CCC2)cc(OC)c1C [Compound 131a, 2-((2S,3R)-2-(cyclobutylmethoxy)-3-(3,5-dimethoxy-4-methylphenyl)-3-hydroxypropyl)-1H-benzo[d]imidazole-5-carboxylic acid] | > 10 | –
3 | CC#CCCO[C@@H](Cn1cc(CC(=O)O)c(C(=O)OC)c1)[C@H](O)c1cc(OC)c(C)c(OC)c1 [Compound 101a, 2-(1-((2S,3R)-3-(3,5-dimethoxy-4-methylphenyl)-3-hydroxy-2-(pent-3-yn-1-yloxy)propyl)-4-(methoxycarbonyl)-1H-pyrrol-3-yl)acetic acid] | 0.213 | –
4 | N#Cc1cc([C@@H](O)[C@H](Cn2cc3cccc(C(=O)O)c3n2)OC2CCCC2)ccc1Cl [Compound 134] | > 10 | –
5 | COC(=O)c1cn(C[C@H](OC2Cc3ccccc3C2)[C@H](O)c2cc(OC)c(C)c(OC)c2)cc1CC(=O)O [Compound 103a, 2-(1-((2S,3R)-2-((2,3-dihydro-1H-inden-2-yl)oxy)-3-(3,5-dimethoxy-4-methylphenyl)-3-hydroxypropyl)-4-(methoxycarbonyl)-1H-pyrrol-3-yl)acetic acid] | 0.00474 | –
6 | COc1cc([C@@H](O)[C@H](Cc2nc3cc(CC(=O)O)ccc3n2C)OCC2CCC2)cc(OC)c1C [Compound 120a, 2-[2-[(2S,3R)-2-(cyclobutylmethoxy)-3-(3,5-dimethoxy-4-methyl-phenyl)-3-hydroxy-propyl]-1-methyl-benzimidazol-5-yl]acetic acid] | > 10 | –
7 | COc1cc([C@@H](O)[C@H](Cn2cc3cccc(C(=O)O)c3n2)OC2CCCCC2)cc(OC)c1C [Compound 140] | 0.0118 | –
8 | CCOc1cc([C@@H](O)[C@H](Cn2cc3cccc(C(=O)O)c3n2)OC2CCCC2)ccc1C [Compound 141] | 0.193 | –
9 | COC(=O)c1cn(C[C@H](OCC2CCC2)[C@H](O)c2cc(OC)c(C)c(OC)c2)cc1CC(=O)O [Compound 117a] | 0.0619 | –
10 | O=C(O)c1cccc2cn(C[C@H](OC3CCCC3)[C@H](O)c3ccccc3)nc12 [Compound 136] | > 10 | –
11 | COc1cc([C@@H](O)[C@H](Cc2nc3c(C(=O)O)cccc3[nH]2)OC2CCCC2)cc(OC)c1C [Compound 142] | > 10 | –
12 | COc1cc([C@@H](O)[C@H](Cn2cc3cccc(C(=O)O)c3n2)OC2Cc3ccccc3C2)cc(OC)c1C [Compound 113a, 2-((2S, 3R)-2-((2,3-dihydro-1H-inden-2-yl)oxy)-3-(3,5-dimethoxy-4-methylphenyl)-3-hydroxypropyl)-2H-indazole-7-carboxylic acid] | 0.00369 | –
13 | COc1cc([C@H](O)[C@H](Cn2cc3cccc(C(=O)O)c3n2)OCCc2ccccc2)cc(OC)c1C [Compound 105b, 2-((2S,3S)-3-(3,5-dimethoxy-4-methylphenyl)-3-hydroxy-2-phenethoxypropyl)-2H-indazole-7-carboxylic acid] | 0.049 | –
14 | O=C(O)c1cccc2cn(C[C@H](OC3CCCC3)[C@@H](O)c3ccccc3)nc12 [Compound 137] | > 10 | –
15 | COc1cc([C@H](O)[C@H](Cn2cc3cccc(C(N)=O)c3n2)OC2CCCC2)ccc1F [Compound 135] | > 10 | –
16 | Cc1ccc([C@@H](O)[C@H](Cn2cc3cccc(C(=O)O)c3n2)OC2CCCC2)cn1 [Compound 127a] | > 10 | –
17 | COc1cc([C@@H](O)[C@H](Cc2nc3cc(C(=O)O)ccc3[nH]2)OC2CCCC2)cc(OC)c1C [Compound 109a, 2-((2S,3R)-2-(cyclopentyloxy)-3-(3,5-dimethoxy-4-methylphenyl)-3-hydroxypropyl)-1H-benzo[d]imidazole-5-carboxylic acid] | > 10 | –
18 | COc1cc([C@@H](O)[C@H](Cc2ccc(CC(=O)O)c(OC)n2)OCCc2ccccc2)cc(OC)c1C [Compound 130a, 2-(6-((2S,3R)-3-(3,5-dimethoxy-4-methylphenyl)-3-hydroxy-2-phenethoxypropyl)-2-methoxypyridin-3-yl)acetic acid] | 1.19 | –

Row | SMILES | IC50 (human LPA1 [1]) [µM] | IC50 (human LPA1 [2]) [nM]
19 | COc1cc([C@@H](O)[C@H](Cn2cc3cccc(C(=O)O)c3n2)OC(C)C)cc(OC)c1C [Compound 145] | 0.0726 | –
20 | COc1cc([C@@H](O)[C@H](Cc2ccc(CC(=O)O)cn2)OCCc2ccccc2)cc(OC)c1C [Compound 106a, 2-(6-((2S,3R)-3-(3,5-dimethoxy-4-methylphenyl)-3-hydroxy-2-phenethoxypropyl)pyridin-3-yl)acetic acid] | 0.411 | –
21 | COC(=O)c1cn(C[C@H](OCCc2ccccc2)[C@@H](O)c2cc(OC)c(C)c(OC)c2)cc1CC(=O)O [Compound 132] | 1.54 | –
22 | COc1cc([C@@H](O)[C@H](Cc2cc3c(OC)ccc(C(=O)O)n3n2)OC2CCCC2)cc(OC)c1C [Compound 237, 2-((2S,3R)-2-(cyclopentyloxy)-3-(3,5-dimethoxy-4-methylphenyl)-3-hydroxypropyl)-4-methoxypyrazolo[1,5-a]pyridine-7-carboxylic acid] | – | 10.3
23 | COc1cc(C(=O)O)n2nc(C[C@H](OC3CCCC3)[C@H](O)c3cc(OC)c(C)cc3C)cc2c1 [Compound 238] | – | 53.3
24 | COc1cc([C@@H](O)[C@H](Cn2cc3cncc(C(=O)O)c3n2)OC2CCCC2)cc(OC)c1C [Compound 159] | – | 49.6
25 | COc1cc([C@@H](O)[C@H](Cn2cc3nccc(C(=O)O)c3n2)OCCCc2ccccc2)cc(OC)c1C [Compound 214] | – | > 10000
26 | COc1cc([C@@H](O)[C@H](Cc2cc3c(C(=O)O)cccc3s2)OC2CCCC2)cc(OC)c1C [Compound 265, 2-((2S,3R)-2-(cyclopentyloxy)-3-(3,5-dimethoxy-4-methylphenyl)-3-hydroxypropyl)benzo[b]thiophene-4-carboxylic acid] | – | 22.7
27 | COc1cc([C@@H](O)[C@H](Cc2nc3c(C(=O)O)cc(C4CC4)cc3s2)OCC(C)C)cc(OC)c1C [Compound 271] | – | 2.19
28 | COc1cc([C@@H](O)[C@H](Cc2nc3c(C(=O)O)cc(Cl)cc3s2)OC2CCCC2)cc(OC)c1C [Compound 246] | – | 1.65
29 | COc1cc([C@@H](O)[C@H](Cc2nc([C@H](C)C(=O)O)c(C)s2)OC2CCCC2)cc(OC)c1C (single isomer, unassigned) [Compound 239] | – | 37.4
30 | COc1cc([C@@H](O)[C@H](Cn2cc3ccnc(C(=O)O)c3n2)OC2CCCC2)cc(OC)c1C [Compound 158] | – | 55.8
31 | COc1cc([C@@H](O)[C@H](Cc2nc3c(C(=O)O)cccn3n2)OC2CCCC2)cc(OC)c1C [Compound 168] | – | > 10000
32 | COc1cc([C@@H](O)[C@H](Cn2cc3ccc(C#N)c(C(=O)O)c3n2)OC2CCCC2)cc(OC)c1C [Compound 180] | – | 153
33 | CCCCc1sc(C[C@H](OC2CCCC2)[C@H](O)c2cc(OC)c(C)c(OC)c2)nc1CC(=O)O [Compound 259] | – | 31.9
34 | COc1cc([C@@H](O)[C@H](Cc2nc3c(C(=O)O)cc(C)cc3s2)OC2CCCC2)cc(OC)c1C [Compound 256] | – | 4.12
35 | COc1cc([C@@H](O)[C@H](Cn2cc3nccc(C(=O)O)c3n2)OCC(C)C)cc(OC)c1C [Compound 211] | – | 459
36 | COc1cc([C@@H](O)[C@H](Cc2nc3c(C(=O)O)cncc3s2)OC2CCCC2)cc(OC)c1C [Compound 176] | – | 9.95

Reference: patent publication US20240018102A1, “COMPOUNDS AND COMPOSITIONS FOR TREATING CONDITIONS ASSOCIATED WITH LPA RECEPTOR ACTIVITY” (Lhotse Bio, Inc., priority 2020, published 2024)
